Legend:
SK-HEP-1 cells [1] = assay: Cell protection assay: viability of SK-HEP-1 cells incubated with fludarabine, CCK-8 assay, 4-parameter logistic potency analysis; conditions: fludarabine 10 μg/ml, 72 hours
Description: The human liver sinusoidal endothelial cell line SK-HEP-1 was obtained from the American Type Culture Collection (ATCC) and cultured in complete EMEM medium in a humidified cell incubator containing 5% CO2 at 37° C. using gelatin-coated tissue culture flasks. The cells were sub-cultured by trypsin mediated detachment every 2-3 days following the instructions provided by the ATCC. Cells were serially transferred into culture flasks when the culture was 80-90% confluent and used for the protection assay between passages +3 to +10. That is, 3 to 10 passages beyond the characterised passage number of the cells received from the ATCC.
A suspension of SK-HEP-1 for use in the cell protection assay was prepared and counted. […] Cells were counted using a Neubauer counting chamber in the presence of trypan blue to assess the percent viability of the cultures.
Fifty μl of the cell suspensions, or medium alone for blanks, prepared at the concentrations described above was placed in wells of a poly-D-lysine coated 96-well microtiter plate. […] Following addition of the solution to the wells, the plates were returned to the incubator and cell viability was assessed after 24, 48 or 72 hr. […]
After the specified period of incubation, cell viability in each well was measured using the CCK-8 cell counting kit (Sigma Aldrich, Milan, Italy) following the manufacturer's instructions. […]

HMEC-1 cells = assay: Cell protection assay: viability of HMEC-1 cells incubated with fludarabine, MTT assay; assay type: cell-based, human; conditions: 72 hours
Description: The MTT assay is based on the cleavage of tetrazolium salts by mitochondrial dehydrogenase in viable cells leading to the production of an insoluble formazan dye. MTT dye, 10 μl of a 2 mg/ml solution in D-PBS, was added to each well and then the plates were incubated for 3 hours. Plates were then centrifuged and each well aspirated. The dye was solubilised with 200 μl of a mixture DMSO/Ethanol (1:1) and absorbance in the wells was read at 570-590 nm on a microplate reader. A blank well containing only media and cytotoxic drug (fludarabine or doxorubicin) was also run as a control in all experiments.
HMEC-1 cells were cultivated according to the above mentioned procedure. A cell density of 500,000 cells/ml was used for the assay. […] Defibrotide was added to the microplate well at a concentration of 100, 10 or 1 μg/ml. Four replicates of each condition were performed. The viability of the HMEC cells was assessed after 72 hours with the MTT assay described above.
HMEC-1 cells were cultivated according to the above mentioned procedure. A cell density of about 500,000 cells/ml was used for the experiment. The cytotoxic agent was fludarabine at a concentration of 50 μg/ml. Synthetic oligonucleotides (Adenine-Cytosine (AC) of about 16 kDa or Adenine-Cytosine-Guanine-Thymine (ACGT) of about 17 kDa) or defibrotide were added to each well at varying concentrations. Specifically, the AC oligonucleotides were added to each well at a concentration of 1, 10, 100 or […], whereas the ACGT oligonucleotides were added to each well at a concentration of 12.5, 25 or 50 μg/ml. […] Each treatment condition was performed in triplicate. The viability was assessed with the MTT assay after 24, 48 and 72 hours.

SK-HEP-1 cells [2] = assay: Cell protection assay: viability of SK-HEP-1 cells incubated with doxorubicin, CCK-8 assay; assay type: cell-based, human; conditions: doxorubicin 0.1 μg/ml, defibrotide 50 μg/ml or greater, 72 hours
Description: The cytotoxic agent was doxorubicin at a concentration of 0.1 μg/ml. Defibrotide was added to the microplate well at a concentration of 100, 50, 20, 10, 5 or 1 μg/ml. Three replicates of each condition were performed. The viability was assessed after 72 hours with the CCK-8 assay kit as described above. […] (FIG. 2).

Row | Compound | protection from fludarabine-induced cytotoxicity (in words) (SK-HEP-1 cells [1]; ACGT or glutathione 1.25-80 μg/ml, tPA 10-320 IU/ml) | cells surviving (SK-HEP-1 cells [1]; defibrotide 40 μg/ml or greater) | protection effect against fludarabine-induced cytotoxicity (HMEC-1 cells; fludarabine 10 μg/ml, defibrotide 100 μg/ml) | protection from fludarabine-induced cytotoxicity (in words) (HMEC-1 cells; fludarabine 10 μg/ml, defibrotide 100, 10 or 1 μg/ml) | protection from fludarabine-induced cytotoxicity (in words) (HMEC-1 cells; fludarabine 50 μg/ml, AC 1-500 μg/ml, ACGT 12.5-50 μg/ml, defibrotide 5-100 μg/ml) | protection from doxorubicin-induced cytotoxicity (in words) (SK-HEP-1 cells [2])
1 | N[C@@H](CCC(=O)N[C@@H](CS)C(=O)NCC(=O)O)C(=O)O [glutathione, Glutathione] | No protection | – | – | – | – | –
2 | defibrotide | – | greater than 80% | more than 50% | protected the cells from fludarabine-induced cytotoxicity in a dose-dependent manner | dose-dependent protection | significantly protected
